Several values for one entry are separate records, joined by “and”; a condition that tells them apart may be missing. Equal values may be shown once. Read-outs that look alike come from different tables or passages of the source.

The values that follow come from PMC12644675, “The mass spectrometric intact transition epitope mapping method supports protein engineering of foldon trimer variants” (Scientific Reports, 2025).

Data set [1] in a line: Travelling wave ion mobility CCS calibration: drift times and TWCCSN2 of calibrant protein ions. Type of data set: physicochemical. Particulars: drift gas nitrogen, repeat determinations printed as separate rows; for dt exp.: in ms; for TWCCSN2: in Å2. The source says:
Supplement 41598_2025_28101_MOESM1_ESM.docx, table 25: Table S18: Drift times, experimentally determined CCS, and literature references of calibrant proteins. | column: CCS determinations ^a); CCS from literature ^a)

Data set [2] deals with foldon homo-trimer. Description: ITEM-FIVE: collision-induced dissociation of foldon homo-trimer 5+ ions in the gas phase (nanoESI-MS). As to conditions: for k#m0g (apparent kinetic constant of trimer dissociation) / TambΔS#m0g / ΔG#m0g (pseudo thermodynamic activation free energy of trimer dissociation) / ΔH#m0g (activation enthalpy of trimer dissociation): gas phase, two measurement series averaged; for k#m0g (apparent kinetic constant of trimer dissociation): CID ΔCV 0-50 V, linear extrapolation to ambient temperature (298 K), dimensionless, sprayed from 50 mM ammonium acetate pH 5.5, 0.1 µg/µl; for TambΔS#m0g: Tamb 298 K; for ΔG#m0g (pseudo thermodynamic activation free energy of trimer dissociation) / ΔH#m0g (activation enthalpy of trimer dissociation): extrapolated to ambient temperature. Type of data set: binding, T4 phage. The source says:
ITEM-FIVE investigations started with electrospraying foldon-containing solutions and by setting the first mass filter (quadrupole) to selecting only foldon trimer ions for transmission into the instrument’s collision cell.
After mass filtering, this was the only remaining ion signal in the mass spectrum because the energy in the collision cell was too low to initiate complex dissociation. […] At 20 V the trimer ion signals were barely visible (Fig. 2C), leaving mass spectra with dominating ion signals of dimers and monomers. Finally, at 40 V, the only ion signals which remained visible in the mass spectra were those of the monomers (Fig. 2D). Independent measurement series of complex dissociations were recorded twice for each foldon variant (Tables S1–S7). […] Plotting the courses of normalized educt ion intensities as functions of ∆CV provided sigmoidal shaped curves with Boltzmann characteristics for all foldons (Fig. 3).
Approximating the tangent lines at the ∆CV50 values of all the Boltzmann curves (R^2 = 0.999 for all foldons; cf. Table S8) and upon transforming ∆CV values to reaction temperatures (applying formula (5) see Supplement) enabled drawing of Arrhenius plots (Fig. S11, applying formulas (1) and (5)) and Ellingham diagrams (Fig. S12, formulas (3), (4) and (5)). The values were calculated from formulas (2), (5) and (6). […] Likewise, the pseudo thermodynamic activation free energy values, followed in all Ellingham diagrams courses with almost parallel lining up of linear courses of all foldons when plotted against (according to formula (4)).
Mass spectra were acquired on a Synapt G2-S instrument (Waters MS-Technologies, Wilmslow, UK). Instrument calibration was performed with a sodium iodide solution with a concentration of 2 mg/ml, dissolved in isopropanol/water (50:50 v/v).
All mass spectra were acquired in positive ion mode applying a mass window from m/z 400 to m/z 8000. NanoESI measurements were performed with the following instrument settings: capillary voltage: 1.0–1.2 kV, sample cone voltage: 13 V source offset: 12 V, source gas flow: 0.0 ml/min, cone gas flow: 9 l/h, helium cell gas flow: 40 ml/min, IMS gas flow: 20.0 ml/min, trap collision voltage for nanoESI-MS analysis: 0–2 V, source temperature: 40 °C; trap gas flow: 2.0 ml/min, reflectron grid 1.449 kV. Data acquisition and processing were done with the MassLynx software version 4.1 (Waters MS-Technologies, Wilmslow, UK)[31].
ITEM-FIVE experiments started with isolating the quintuply charged foldon trimer ion signal as the respective precursor ion[31]. Then the collision cell voltage difference (ΔCV) in the trap cell was increased stepwise from: 0 V, to 2 V, 5 V, 7 V, 10 V, 12 V, 15 V, 20 V, 30 V, 40 V, and 50 V. At each ΔCV setting mass spectra were accumulated for 2 min and scans were combined using the MassLynx Software version 4.1 (Waters MS Technologies, Wilmslow, UK). Two measurement series were recorded. Mass spectrometry data have been deposited at the ProteomeXchange Consortium’s PRIDE repository[62] with the dataset identifier PXD064233.
From each mass spectrum one list with mass/intensity pair data was copied into a text file and then imported into the OriginPro 2017G software (64 bit) (OriginLab Corporation, Northampton, MA, USA) where it was further processed to eliminate baseline and noise signals. Then, the processed mass list data were converted to a Microsoft Access 2010 database from which data of pre-defined target masses were extracted with a threshold of ± 0.5 Da. Target masses were selected to represent the most characteristic ion signals in the respective mass spectrum: educts were represented by the trimer’s 5 + ion signal and products by the dimer’s 3 + ion signal and the monomer’s 2 + ion signal. […] Ion signal intensities were normalized by setting the sum of all remaining target mass ion signals to 100%. […]

The nature of data set [3]: Travelling wave ion mobility: drift times and CCS of homo-trimer 5+ ions. It is filed as physicochemical. Particulars: TWIM, nitrogen; for TWCCSN2 exp. (mean): 5+ trimer ion; for TWCCSN2 exp. (mean) / dt (mean): 50 mM ammonium acetate pH 5.5, c = 0.1 mg/ml, mean of two independent measurements; for dt (mean): centroided 5+ trimer ion signal; for FWHM: drift time peak of 5+ trimer ion, unit assumed. How it is done: Ion mobility measurements were performed using a Synapt G2-S instrument (Waters Corporation, Wilmslow, UK) equipped with a travelling wave ion mobility (TWIM) cell. Nitrogen was the neutral buffer gas for all TWIM experiments. All mass spectra were acquired in positive ion mode applying a mass window from m/z 400 to m/z 8000. Instrument settings were as follows: capillary voltage: 1.2 kV, sample cone voltage: 13 V, source offset: 12 V, source temperature: 40 °C, trap collision energy: 2.0 V, pusher: 1900 V, puller: 1370 V, reflectron grid 1.451 kV, source gas flow: 0.0 ml/min, cone gas flow: 9 l/h, nano flow gas pressure: 0.2 bar, helium cell gas flow: 140 ml/min, IMS gas flow: 50.0 ml/min, trap collision voltage: 2 V, trap gas flow: 5.0 ml/min, IMS wave velocity 1600 m/s, wave height: 30.0 V. Data acquisition, arrival time determinations, and processing were done with the MassLynx software version 4.1 (Waters MS-Technologies, Wilmslow, UK[31]. TWIM calibration was done with bovine serum albumin, myoglobin, cytochrome c, ubiquitin, and insulin using published CCS values (Table S18)[66],[67] and applying the published algorithms for logarithmic fits[66],[68] as well as for linear fits[69].

The conditions of data set [4]: drift gas nitrogen, in Å2, cited from earlier work. The text has this: Supplement 41598_2025_28101_MOESM1_ESM.docx, table 25: Table S18: Drift times, experimentally determined CCS, and literature references of calibrant proteins. | column: CCS from literature ^a)
Setting [5] is: Boltzmann curve parameter, 5+ trimer ion, mean of two measurement series, Table S8.
The mark [6] stands for this setting: collision cell voltage difference at half dissociation of 5+ trimer ion, Boltzmann fit.
[7] abbreviates: calibrant ion z = 5, ion at m/z 2473.12.
Where [8] appears, read: calibrant ion z = 5, ion at m/z 2473.14.

Turning to insulin, the dt exp. in data set [1] (calibrant ion z = 3) was 12.3 and 12.44; in data set [1] (calibrant ion z = 4), 8.43 and 8.57; in data set [1] (calibrant ion z = 5), 7.19. For the same substance, the TWCCSN2 in data set [1] (calibrant ion z = 3) was 729 and 732; in data set [1] (calibrant ion z = 4), 865 and 868; in data set [1] (calibrant ion z = 5), 1038.

For “H-Gly^1Tyr^2IPEAPRDala^10QAYVRKphe^17GEWVLLSTFL-NH2 [foldon 1, T4Ff variant with D-Ala10, D-Phe17 and C-terminal carboxamide]”, the ΔCV50 in data set [2] (setting [5]) was determined as 11.04. Also, the ΔCV50 in data set [2] (setting [6]) is reported as 11.0 V. Further, in data set [2] (5+ trimer ion), the “k#m0g (apparent kinetic constant of trimer dissociation)” value is reported as 6.61 × 10^9, the “TambΔS#m0g” value was found to be 8.44 kcal/mol, the “ΔG#m0g (pseudo thermodynamic activation free energy of trimer dissociation)” value was 3.94 kcal/mol and the “ΔH#m0g (activation enthalpy of trimer dissociation)” value is 12.4 kcal/mol. In data set [3], the “TWCCSN2 exp. (mean)” value is 1172 Å^2, the “dt (mean)” value worked out at 11.1 ms and the FWHM stood at 1.5 ms.

As to “H-Gly^1tyr^2IPEAPRDala^10QAYVRKphe^17GEWVLLSTFL-NH2 [foldon 2]”, in data set [2] (5+ trimer ion), the “k#m0g (apparent kinetic constant of trimer dissociation)” value is listed as 3.60 × 10^9, the “TambΔS#m0g” value was 9.03 kcal/mol, the “ΔG#m0g (pseudo thermodynamic activation free energy of trimer dissociation)” value was 4.42 kcal/mol and the “ΔH#m0g (activation enthalpy of trimer dissociation)” value was 13.5 kcal/mol. Also, in data set [3], the “TWCCSN2 exp. (mean)” value amounted to 1169 Å^2, the “dt (mean)” value came out at 11.0 ms and the FWHM turned out to be 1.5 ms.

Take “H-tyr^2IPEAPRDala^10QAYVRKphe^17GEWVLLSTFL-NH2 [foldon 4, T4Ff variant without Gly1, D-Tyr at position 2]”: the ΔCV50 in data set [2] (setting [5]) stood at 12.26. Moreover, in data set [2] (5+ trimer ion), the “k#m0g (apparent kinetic constant of trimer dissociation)” value was 1.17 × 10^9, the “TambΔS#m0g” value was 9.27 kcal/mol, the “ΔG#m0g (pseudo thermodynamic activation free energy of trimer dissociation)” value was 5.07 kcal/mol and the “ΔH#m0g (activation enthalpy of trimer dissociation)” value was 14.3 kcal/mol. Moreover, in data set [3], the “TWCCSN2 exp. (mean)” value is given as 1164 Å^2, the “dt (mean)” value was found to be 10.9 ms and the FWHM was determined as 1.6 ms.

Consider “H-Tyr^2IPEAPRDala^10QAYVRKphe^17GEWVLLSTFL-NH2 [foldon 3]”, for which the ΔCV50 in data set [2] (setting [5]) was 11.63. Also, in data set [2] (5+ trimer ion), the “k#m0g (apparent kinetic constant of trimer dissociation)” value is recorded as 2.64 × 10^9, the “TambΔS#m0g” value turned out to be 8.99 kcal/mol, the “ΔG#m0g (pseudo thermodynamic activation free energy of trimer dissociation)” value was 4.57 kcal/mol and the “ΔH#m0g (activation enthalpy of trimer dissociation)” value is 13.6 kcal/mol. In data set [3], the “TWCCSN2 exp. (mean)” value is on record as 1164 Å^2, the “dt (mean)” value was 10.9 ms and the FWHM came out at 1.2 ms.

Substance “H-Nal^2IPEAPRDala^10QAYVRKphe^17GEWVLLSTFL-NH2 [foldon 5, T4Ff variant without Gly1, Nal at position 2]” returned a ΔCV50 in data set [2] (setting [5]) of 12.25. In addition, in data set [2] (5+ trimer ion), the “k#m0g (apparent kinetic constant of trimer dissociation)” value is recorded as 1.22 × 10^9, the “TambΔS#m0g” value is 9.56 kcal/mol, the “ΔG#m0g (pseudo thermodynamic activation free energy of trimer dissociation)” value was 5.04 kcal/mol and the “ΔH#m0g (activation enthalpy of trimer dissociation)” value is 14.6 kcal/mol. Further, in data set [3], the “TWCCSN2 exp. (mean)” value worked out at 1169 Å^2, the “dt (mean)” value worked out at 11.0 ms and the FWHM came out at 0.8 ms.

For the substance cytochrome c, the dt exp. in data set [1] (setting [7]) was 12.03; in data set [1] (setting [8]), 11.89; in data set [1] (calibrant ion z = 8) it was 10.23 and 10.37. The TWCCSN2 is 1204 in data set [1] (setting [7]); 1199 in data set [1] (setting [8]); 1827 and 1835 in data set [1] (calibrant ion z = 8). Also, the “CCS from literature, CCS exp.” value in data set [4] (calibrant ion z = 5) is 1146; in data set [4] (calibrant ion z = 6, two literature values) it was 1477 and 1490; in data set [4] (calibrant ion z = 7) it was 1590.

As to “H-Gly^1Tyr^2IPEAPRDGly^10QAYVRKAsp^17GEWVLLSTFL-OH [foldon 0, original T4 Fibritin foldon mini-protein of 27 amino acids, purchased, forms homo-trimers, reference compound]”, the ΔCV50 in data set [2] (setting [5]) was 13.51. The ΔCV50 in data set [2] (setting [6]) was determined as 13.5 V. For the same substance, in data set [2] (5+ trimer ion), the “k#m0g (apparent kinetic constant of trimer dissociation)” value is given as 3.61 × 10^8, the “TambΔS#m0g” value was 9.56 kcal/mol, the “ΔG#m0g (pseudo thermodynamic activation free energy of trimer dissociation)” value is 5.71 kcal/mol and the “ΔH#m0g (activation enthalpy of trimer dissociation)” value is 15.3 kcal/mol. Moreover, in data set [3], the “TWCCSN2 exp. (mean)” value is 1160 Å^2, the “dt (mean)” value is 10.8 ms and the FWHM was found to be 1.9 ms.

“H-Dip^2IPEAPRDala^10QAYVRKphe^17GEWVLLSTFL-NH2 [foldon 6, T4Ff variant without Gly1, Dip at position 2]”: in data set [2] (setting [5]), the ΔCV50 was found to be 13.42. The substance further came in with a ΔCV50 in data set [2] (setting [6]) of 13.4 V. Also, in data set [2] (5+ trimer ion), the “k#m0g (apparent kinetic constant of trimer dissociation)” value is listed as 3.47 × 10^8, the “TambΔS#m0g” value worked out at 10.1 kcal/mol, the “ΔG#m0g (pseudo thermodynamic activation free energy of trimer dissociation)” value is 5.88 kcal/mol and the “ΔH#m0g (activation enthalpy of trimer dissociation)” value was 16 kcal/mol. For the same substance, in data set [3], the “TWCCSN2 exp. (mean)” value was 1177 Å^2, the “dt (mean)” value was determined as 11.3 ms and the FWHM came to 1.5 ms.
